Source: ChEMBL document CHEMBL4257449, “New N-(2-phenyl-4-oxo-1,3-thiazolidin-3-yl)-1,2-benzothiazole-3-carboxamides and acetamides as antimicrobial agents” (2017)
Values after ≈ are worked out from the molar mass of the structure shown.

Tests used:
[1] = test system: Aspergillus fumigatus; test: Antifungal activity against Aspergillus fumigatus after 72 hrs by serial dilution method; format: functional
[2] = test system: Trichoderma viride; test: Fungicidal activity against Trichoderma viride IAM 5061 incubated for 72 hrs followed by serial sub-cultivation for 72 hrs and measured after 72 hrs by serial dilution method; format: functional
[3] = test system: Trichoderma viride; test: Antifungal activity against Trichoderma viride IAM 5061 after 72 hrs by serial dilution method; format: functional; conditions: IAM 5061, 72 h
[4] = test system: Aspergillus niger; test: Fungicidal activity against Aspergillus niger ATCC 6275 incubated for 72 hrs followed by serial sub-cultivation for 72 hrs and measured after 72 hrs by serial dilution method; format: functional
[5] = test system: Pseudomonas aeruginosa; test: Bactericidal activity against Pseudomonas aeruginosa ATCC 27853 incubated for 24 hrs followed by serial sub-cultivation and measured after 24 hrs by microdilution method; format: functional
[6] = test system: Enterobacter cloacae; test: Bactericidal activity against Enterobacter cloacae incubated for 24 hrs followed by serial sub-cultivation and measured after 24 hrs by microdilution method; format: functional
[7] = test system: Staphylococcus aureus; test: Bactericidal activity against Staphylococcus aureus ATCC 6538 incubated for 24 hrs followed by serial sub-cultivation and measured after 24 hrs by microdilution method; format: functional
[8] = test system: Pseudomonas aeruginosa; test: Antibacterial activity against Pseudomonas aeruginosa ATCC 27853 after 24 hrs by microdilution method; format: functional; conditions: ATCC 27853, 24 h
[9] = test system: Listeria monocytogenes; test: Antibacterial activity against Listeria monocytogenes NCTC 7973 after 24 hrs by microdilution method; format: functional; conditions: NCTC 7973, 24 h
[10] = test system: Penicillium ochrochloron; test: Fungicidal activity against Penicillium ochrochloron ATCC 9112 incubated for 72 hrs followed by serial sub-cultivation for 72 hrs and measured after 72 hrs by serial dilution method; format: functional
[11] = test system: Listeria monocytogenes; test: Bactericidal activity against Listeria monocytogenes NCTC 7973 incubated for 24 hrs followed by serial sub-cultivation and measured after 24 hrs by microdilution method; format: functional
[12] = test system: Aspergillus niger; test: Antifungal activity against Aspergillus niger ATCC 6275 after 72 hrs by serial dilution method; format: functional; conditions: ATCC 6275, 72 h
[13] = test system: Aspergillus versicolor; test: Antifungal activity against Aspergillus versicolor ATCC 11730 after 72 hrs by serial dilution method; format: functional; conditions: ATCC 11730, 72 h
[14] = test system: Salmonella typhimurium; test: Bactericidal activity against Salmonella typhimurium ATCC 13311 incubated for 24 hrs followed by serial sub-cultivation and measured after 24 hrs by microdilution method; format: functional, Salmonella enterica subsp. enterica serovar Typhimurium
[15] = test system: Escherichia coli; test: Bactericidal activity against Escherichia coli ATCC 35210 incubated for 24 hrs followed by serial sub-cultivation and measured after 24 hrs by microdilution method; format: functional
[16] = test system: Bacillus cereus; test: Bactericidal activity against Bacillus cereus incubated for 24 hrs followed by serial sub-cultivation and measured after 24 hrs by microdilution method; format: functional
[17] = test system: Escherichia coli; test: Antibacterial activity against Escherichia coli ATCC 35210 after 24 hrs by microdilution method; format: functional; conditions: ATCC 35210, 24 h
[18] = test system: Talaromyces funiculosus; test: Fungicidal activity against Penicillium funiculosum ATCC 36839 incubated for 72 hrs followed by serial sub-cultivation for 72 hrs and measured after 72 hrs by serial dilution method; format: functional
[19] = test system: Staphylococcus aureus; test: Antibacterial activity against Staphylococcus aureus ATCC 6538 after 24 hrs by microdilution method; format: functional; conditions: ATCC 6538, 24 h
[20] = test system: Aspergillus ochraceus; test: Fungicidal activity against Aspergillus ochraceus ATCC 12066 incubated for 72 hrs followed by serial sub-cultivation for 72 hrs and measured after 72 hrs by serial dilution method; format: functional
[21] = test system: Salmonella typhimurium; test: Antibacterial activity against Salmonella typhimurium ATCC 13311 after 24 hrs by microdilution method; format: functional, Salmonella enterica subsp. enterica serovar Typhimurium; conditions: Salmonella enterica, ATCC 13311, 24 h
[22] = test system: Candida albicans; test: Fungicidal activity against Candida albicans incubated for 72 hrs followed by serial sub-cultivation for 72 hrs and measured after 72 hrs by serial dilution method; format: functional
[23] = test system: Bacillus cereus; test: Antibacterial activity against Bacillus cereus after 24 hrs by microdilution method; format: functional
[24] = test system: Aspergillus fumigatus; test: Fungicidal activity against Aspergillus fumigatus incubated for 72 hrs followed by serial sub-cultivation for 72 hrs and measured after 72 hrs by serial dilution method; format: functional
[25] = test system: Candida albicans; test: Antifungal activity against Candida albicans after 72 hrs by serial dilution method; format: functional
[26] = test system: Micrococcus flavus; test: Bactericidal activity against Micrococcus flavus ATCC 10240 incubated for 24 hrs followed by serial sub-cultivation and measured after 24 hrs by microdilution method; format: functional
[27] = test system: Micrococcus flavus; test: Antibacterial activity against Micrococcus flavus ATCC 10240 after 24 hrs by microdilution method; format: functional; conditions: ATCC 10240, 24 h
[28] = test system: Talaromyces funiculosus; test: Antifungal activity against Penicillium funiculosum ATCC 36839 after 72 hrs by serial dilution method; format: functional; conditions: ATCC 36839, 72 h
[29] = test system: Penicillium ochrochloron; test: Antifungal activity against Penicillium ochrochloron ATCC 9112 after 72 hrs by serial dilution method; format: functional; conditions: ATCC 9112, 72 h
[30] = test system: Aspergillus versicolor; test: Fungicidal activity against Aspergillus versicolor ATCC 11730 incubated for 72 hrs followed by serial sub-cultivation for 72 hrs and measured after 72 hrs by serial dilution method; format: functional
[31] = test system: Enterobacter cloacae; test: Antibacterial activity against Enterobacter cloacae after 24 hrs by microdilution method; format: functional
[32] = test system: Aspergillus ochraceus; test: Antifungal activity against Aspergillus ochraceus ATCC 12066 after 72 hrs by serial dilution method; format: functional; conditions: ATCC 12066, 72 h

MIC [8] [µM] | MIC [9] [µM] | MIC [17] [µM] | MIC [19] [µM] | MIC [21] [µM] | MIC [23] [µM] | MIC [27] [µM] | MIC [31] [µM] | SMILES | MIC [1] [µM] | MFC99.5 [2] [×10⁻² umol/ml] | MIC [3] [µM] | MFC99.5 [4] [×10⁻² umol/ml] | MBC99.5 [5] [×10⁻² umol/ml] | MBC99.5 [6] [×10⁻² umol/ml] | MBC99.5 [7] [×10⁻² umol/ml] | MBC99.5 [11] [×10⁻² umol/ml] | MBC99.5 [14] [×10⁻² umol/ml] | MBC99.5 [15] [×10⁻² umol/ml] | MBC99.5 [16] [×10⁻² umol/ml] | MBC99.5 [26] [×10⁻² umol/ml] | further results
189 (≈ 80.2 µg/mL) | 395 (≈ 168 µg/mL) | 543 (≈ 230 µg/mL) | 189 (≈ 80.2 µg/mL) | 395 (≈ 168 µg/mL) | 395 (≈ 168 µg/mL) | 543 (≈ 230 µg/mL) | 543 (≈ 230 µg/mL) | O=C(NN1C(=O)CSC1c1c(Cl)cccc1Cl)c1nsc2ccccc12 (stereo not given) | 395 (≈ 168 µg/mL) | 18.9 | 132 (≈ 56 µg/mL) | 79 | 39.5 | 79 | 39.5 | 79 | 79 | 79 | 79 | 79 | MFC99.5 [10]: 79 ×10⁻² umol/ml; MIC [12]: 395 µM (≈ 168 µg/mL); MIC [13]: 189 µM (≈ 80.2 µg/mL); MFC99.5 [18]: 79 ×10⁻² umol/ml; MFC99.5 [20]: 18.9 ×10⁻² umol/ml; MFC99.5 [22]: 79 ×10⁻² umol/ml; MFC99.5 [24]: 79 ×10⁻² umol/ml; MIC [25]: 395 µM (≈ 168 µg/mL); MIC [28]: 395 µM (≈ 168 µg/mL); MIC [29]: 395 µM (≈ 168 µg/mL); MFC99.5 [30]: 70.8 ×10⁻² umol/ml; MIC [32]: 94.5 µM (≈ 40.1 µg/mL)
744 (≈ 260 µg/mL) | 372 (≈ 130 µg/mL) | 372 (≈ 130 µg/mL) | 248 (≈ 86.7 µg/mL) | 248 (≈ 86.7 µg/mL) | 248 (≈ 86.7 µg/mL) | 248 (≈ 86.7 µg/mL) | 248 (≈ 86.7 µg/mL) | CC1(C)S[C@@H]2[C@H](NC(=O)[C@H](N)c3ccccc3)C(=O)N2[C@H]1C(=O)O [AMPICILLIN] |  |  |  |  | 124 | 37.2 | 37.2 | 74.4 | 49.2 | 49.2 | 37.2 | 37.2 | 
172 (≈ 100 µg/mL) | 258 (≈ 150 µg/mL) | 172 (≈ 100 µg/mL) | 172 (≈ 100 µg/mL) | 172 (≈ 100 µg/mL) | 43 (≈ 25 µg/mL) | 86 (≈ 50 µg/mL) | 43 (≈ 25 µg/mL) | CN[C@@H]1[C@H](O[C@H]2[C@H](O[C@H]3[C@H](O)[C@@H](O)[C@H](N=C(N)N)[C@@H](O)[C@@H]3N=C(N)N)O[C@@H](C)[C@]2(O)C=O)O[C@@H](CO)[C@H](O)[C@H]1O [STREPTOMYCIN] |  |  |  |  | 34.4 | 8.6 | 34.4 | 51.6 | 34.4 | 34.4 | 8.6 | 17.2 | 
 |  |  |  |  |  |  |  | CC(=O)N1CCN(c2ccc(OCC3COC(Cn4ccnc4)(c4ccc(Cl)cc4Cl)O3)cc2)CC1 (stereo not given) [KETOCONAZOLE] | 380 (≈ 202 µg/mL) | 285 | 1900 (≈ 1010 µg/mL) | 95 |  |  |  |  |  |  |  |  | MFC99.5 [10]: 285 ×10⁻² umol/ml; MIC [12]: 380 µM (≈ 202 µg/mL); MIC [13]: 380 µM (≈ 202 µg/mL); MFC99.5 [18]: 95 ×10⁻² umol/ml; MFC99.5 [20]: 38 ×10⁻² umol/ml; MFC99.5 [22]: 56 ×10⁻² umol/ml; MFC99.5 [24]: 95 ×10⁻² umol/ml; MIC [25]: 380 µM (≈ 202 µg/mL); MIC [28]: 380 µM (≈ 202 µg/mL); MIC [29]: 1900 µM (≈ 1010 µg/mL); MFC99.5 [30]: 95 ×10⁻² umol/ml; MIC [32]: 280 µM (≈ 149 µg/mL)
